Activity calls are given as the source filed them.
Tests used:
[1] = target: T1, Tyrosine-protein phosphatase non-receptor type 22 (Homo sapiens, UniProt Q9Y2R2); assay type: functional
T1 sequence (Q9Y2R2 whole entry): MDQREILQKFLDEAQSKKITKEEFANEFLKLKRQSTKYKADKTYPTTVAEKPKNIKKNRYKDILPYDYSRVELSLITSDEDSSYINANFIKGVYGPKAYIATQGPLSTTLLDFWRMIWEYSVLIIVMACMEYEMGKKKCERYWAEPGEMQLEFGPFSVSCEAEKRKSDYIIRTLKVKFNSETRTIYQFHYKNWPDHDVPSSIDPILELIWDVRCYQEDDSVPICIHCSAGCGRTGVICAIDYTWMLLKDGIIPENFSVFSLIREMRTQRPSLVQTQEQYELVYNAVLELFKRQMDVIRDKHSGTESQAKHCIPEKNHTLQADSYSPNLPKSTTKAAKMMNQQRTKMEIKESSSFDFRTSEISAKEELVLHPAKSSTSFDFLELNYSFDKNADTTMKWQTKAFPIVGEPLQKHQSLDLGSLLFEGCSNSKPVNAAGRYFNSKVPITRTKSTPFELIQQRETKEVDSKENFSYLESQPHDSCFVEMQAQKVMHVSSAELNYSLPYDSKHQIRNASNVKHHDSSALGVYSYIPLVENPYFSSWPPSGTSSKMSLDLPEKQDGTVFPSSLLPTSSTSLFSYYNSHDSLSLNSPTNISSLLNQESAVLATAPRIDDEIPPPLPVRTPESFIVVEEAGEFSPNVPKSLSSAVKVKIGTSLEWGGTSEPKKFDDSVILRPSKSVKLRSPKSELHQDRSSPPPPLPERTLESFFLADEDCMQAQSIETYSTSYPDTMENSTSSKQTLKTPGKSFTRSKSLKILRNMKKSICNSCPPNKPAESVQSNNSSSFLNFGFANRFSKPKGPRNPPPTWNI

[2] = target: T1, Tyrosine-protein phosphatase non-receptor type 22; test: inhibitors of LYP phosphatase, biochemical, fluorescence intensity, uHTS (AID 1779)
[3] = target: T2, Apoptotic protease-activating factor 1 (Homo sapiens, UniProt O14727); test: activation of Apaf-1 mediated apoptosis – fluorescent, uHTS hits, dose response (AID 588554); assay type: functional
T2 sequence (O14727 whole entry): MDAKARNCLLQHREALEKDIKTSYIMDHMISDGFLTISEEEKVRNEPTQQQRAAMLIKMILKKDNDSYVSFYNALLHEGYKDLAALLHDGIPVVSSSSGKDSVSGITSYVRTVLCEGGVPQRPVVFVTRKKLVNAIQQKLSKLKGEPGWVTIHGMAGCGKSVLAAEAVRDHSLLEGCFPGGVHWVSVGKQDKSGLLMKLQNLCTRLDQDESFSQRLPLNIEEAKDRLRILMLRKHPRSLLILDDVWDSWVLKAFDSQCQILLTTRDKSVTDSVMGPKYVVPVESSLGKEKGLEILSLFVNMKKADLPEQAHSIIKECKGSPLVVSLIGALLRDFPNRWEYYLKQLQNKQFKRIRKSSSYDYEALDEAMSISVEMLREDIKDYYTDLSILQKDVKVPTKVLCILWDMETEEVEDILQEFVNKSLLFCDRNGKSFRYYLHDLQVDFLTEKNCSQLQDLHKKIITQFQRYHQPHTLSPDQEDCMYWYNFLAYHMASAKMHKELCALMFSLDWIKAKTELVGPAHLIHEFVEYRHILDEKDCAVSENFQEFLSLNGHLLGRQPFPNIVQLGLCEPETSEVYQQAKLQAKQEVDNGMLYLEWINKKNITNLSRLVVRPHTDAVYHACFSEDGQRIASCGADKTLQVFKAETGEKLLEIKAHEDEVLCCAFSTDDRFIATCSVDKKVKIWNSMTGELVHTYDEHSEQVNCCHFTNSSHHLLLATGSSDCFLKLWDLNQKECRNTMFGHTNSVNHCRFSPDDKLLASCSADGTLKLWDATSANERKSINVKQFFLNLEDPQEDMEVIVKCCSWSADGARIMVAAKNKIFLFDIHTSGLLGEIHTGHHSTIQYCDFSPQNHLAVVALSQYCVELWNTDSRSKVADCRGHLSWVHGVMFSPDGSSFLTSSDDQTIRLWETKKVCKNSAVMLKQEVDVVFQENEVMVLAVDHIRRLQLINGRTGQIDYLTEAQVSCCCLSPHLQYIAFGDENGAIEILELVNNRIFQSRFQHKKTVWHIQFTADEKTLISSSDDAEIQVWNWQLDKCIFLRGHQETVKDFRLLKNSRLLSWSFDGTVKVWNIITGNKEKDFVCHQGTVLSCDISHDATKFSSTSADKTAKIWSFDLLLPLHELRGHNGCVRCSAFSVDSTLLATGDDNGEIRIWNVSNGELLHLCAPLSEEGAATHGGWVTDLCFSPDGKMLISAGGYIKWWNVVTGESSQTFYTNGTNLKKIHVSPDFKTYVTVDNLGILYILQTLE

[4] = target: ORF 73 (Human herpesvirus 8, UniProt O40947); test: inhibitors of C-LANA binding to LBS DNA, dose response, biochemical, fluorescence polarization, cherry-picked samples (AID 504725); set-up: species or system Human gammaherpesvirus 8;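 note: fluorescence polarization of a labeled DNA duplex reporting LANA DNA binding; potency is for inhibitors that block LANA binding to the DNA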
Sequence of ORF 73 (O40947 whole entry, the tested form may be a part): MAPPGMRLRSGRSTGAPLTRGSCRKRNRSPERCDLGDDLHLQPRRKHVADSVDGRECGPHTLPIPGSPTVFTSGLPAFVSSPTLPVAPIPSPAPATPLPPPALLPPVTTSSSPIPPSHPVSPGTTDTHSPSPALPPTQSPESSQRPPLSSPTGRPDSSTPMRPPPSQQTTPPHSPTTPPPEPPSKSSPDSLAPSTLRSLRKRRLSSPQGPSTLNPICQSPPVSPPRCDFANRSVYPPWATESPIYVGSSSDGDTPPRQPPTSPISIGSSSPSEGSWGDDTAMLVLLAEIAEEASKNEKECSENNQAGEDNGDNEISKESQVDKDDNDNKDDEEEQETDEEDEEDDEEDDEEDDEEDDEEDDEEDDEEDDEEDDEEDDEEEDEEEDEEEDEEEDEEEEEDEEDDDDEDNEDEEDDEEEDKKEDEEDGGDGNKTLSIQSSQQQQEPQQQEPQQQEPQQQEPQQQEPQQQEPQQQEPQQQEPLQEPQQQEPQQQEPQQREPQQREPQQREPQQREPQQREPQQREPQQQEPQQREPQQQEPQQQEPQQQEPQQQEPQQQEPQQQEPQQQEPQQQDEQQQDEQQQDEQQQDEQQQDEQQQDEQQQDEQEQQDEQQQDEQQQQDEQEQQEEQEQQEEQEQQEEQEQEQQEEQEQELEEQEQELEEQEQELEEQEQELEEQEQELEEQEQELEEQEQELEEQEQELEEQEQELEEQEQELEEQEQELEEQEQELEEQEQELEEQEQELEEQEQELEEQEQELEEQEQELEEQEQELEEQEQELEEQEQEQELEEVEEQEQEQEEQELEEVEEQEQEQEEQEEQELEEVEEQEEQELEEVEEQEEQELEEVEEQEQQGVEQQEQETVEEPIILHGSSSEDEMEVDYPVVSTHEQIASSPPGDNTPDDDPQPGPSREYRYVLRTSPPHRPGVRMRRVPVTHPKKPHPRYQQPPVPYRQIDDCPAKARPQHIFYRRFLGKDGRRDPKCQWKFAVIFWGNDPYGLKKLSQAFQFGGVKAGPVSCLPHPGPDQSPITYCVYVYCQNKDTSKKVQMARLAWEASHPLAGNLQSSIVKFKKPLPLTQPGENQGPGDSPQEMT

[5] = target: T3, Carboxy-terminal domain RNA polymerase II polypeptide A small phosphatase 1 (Homo sapiens, UniProt Q9GZU7); test: inhibitors of CTDSP1, concentration-response testing, biochemical assay, absorbance-based, actives from ultra-high-throughput screening (AID 540297); assay type: functional
T3 sequence (Q9GZU7 whole entry): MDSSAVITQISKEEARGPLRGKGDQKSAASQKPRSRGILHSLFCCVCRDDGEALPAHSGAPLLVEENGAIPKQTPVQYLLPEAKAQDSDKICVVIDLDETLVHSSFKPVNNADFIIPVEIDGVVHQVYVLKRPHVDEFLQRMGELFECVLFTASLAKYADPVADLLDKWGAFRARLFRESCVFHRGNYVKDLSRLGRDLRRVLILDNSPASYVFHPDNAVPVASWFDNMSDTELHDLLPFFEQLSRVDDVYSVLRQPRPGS

[6] = target: Serine/threonine-protein phosphatase PP1-alpha catalytic subunit (Homo sapiens, UniProt P62136); test: PP1 phosphatase inhibitors, dose response, biochemical, fluorescence (AID 2403);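 note: phosphatase turnover of OMFP into fluorescent 3-O-methylfluorescein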
Sequence of Serine/threonine-protein phosphatase PP1-alpha catalytic subunit (P62136 whole entry): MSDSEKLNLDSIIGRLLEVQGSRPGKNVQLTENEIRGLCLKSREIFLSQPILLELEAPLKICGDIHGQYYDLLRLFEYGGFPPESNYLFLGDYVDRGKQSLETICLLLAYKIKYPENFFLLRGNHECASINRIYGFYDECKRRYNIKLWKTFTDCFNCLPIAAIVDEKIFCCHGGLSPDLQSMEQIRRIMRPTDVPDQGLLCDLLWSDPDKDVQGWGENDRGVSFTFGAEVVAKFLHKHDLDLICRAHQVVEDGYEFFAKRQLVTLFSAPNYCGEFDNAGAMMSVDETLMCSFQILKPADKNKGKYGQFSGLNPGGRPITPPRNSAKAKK

[7] = target: DNA (cytosine-5)-methyltransferase 1 (Homo sapiens, UniProt P26358); test: DNMT1 methyltransferase inhibitors, confirmation, biochemical, fluorescent molecular beacon (AID 602386); assay type: functional
Sequence of DNA (cytosine-5)-methyltransferase 1 (P26358 whole entry): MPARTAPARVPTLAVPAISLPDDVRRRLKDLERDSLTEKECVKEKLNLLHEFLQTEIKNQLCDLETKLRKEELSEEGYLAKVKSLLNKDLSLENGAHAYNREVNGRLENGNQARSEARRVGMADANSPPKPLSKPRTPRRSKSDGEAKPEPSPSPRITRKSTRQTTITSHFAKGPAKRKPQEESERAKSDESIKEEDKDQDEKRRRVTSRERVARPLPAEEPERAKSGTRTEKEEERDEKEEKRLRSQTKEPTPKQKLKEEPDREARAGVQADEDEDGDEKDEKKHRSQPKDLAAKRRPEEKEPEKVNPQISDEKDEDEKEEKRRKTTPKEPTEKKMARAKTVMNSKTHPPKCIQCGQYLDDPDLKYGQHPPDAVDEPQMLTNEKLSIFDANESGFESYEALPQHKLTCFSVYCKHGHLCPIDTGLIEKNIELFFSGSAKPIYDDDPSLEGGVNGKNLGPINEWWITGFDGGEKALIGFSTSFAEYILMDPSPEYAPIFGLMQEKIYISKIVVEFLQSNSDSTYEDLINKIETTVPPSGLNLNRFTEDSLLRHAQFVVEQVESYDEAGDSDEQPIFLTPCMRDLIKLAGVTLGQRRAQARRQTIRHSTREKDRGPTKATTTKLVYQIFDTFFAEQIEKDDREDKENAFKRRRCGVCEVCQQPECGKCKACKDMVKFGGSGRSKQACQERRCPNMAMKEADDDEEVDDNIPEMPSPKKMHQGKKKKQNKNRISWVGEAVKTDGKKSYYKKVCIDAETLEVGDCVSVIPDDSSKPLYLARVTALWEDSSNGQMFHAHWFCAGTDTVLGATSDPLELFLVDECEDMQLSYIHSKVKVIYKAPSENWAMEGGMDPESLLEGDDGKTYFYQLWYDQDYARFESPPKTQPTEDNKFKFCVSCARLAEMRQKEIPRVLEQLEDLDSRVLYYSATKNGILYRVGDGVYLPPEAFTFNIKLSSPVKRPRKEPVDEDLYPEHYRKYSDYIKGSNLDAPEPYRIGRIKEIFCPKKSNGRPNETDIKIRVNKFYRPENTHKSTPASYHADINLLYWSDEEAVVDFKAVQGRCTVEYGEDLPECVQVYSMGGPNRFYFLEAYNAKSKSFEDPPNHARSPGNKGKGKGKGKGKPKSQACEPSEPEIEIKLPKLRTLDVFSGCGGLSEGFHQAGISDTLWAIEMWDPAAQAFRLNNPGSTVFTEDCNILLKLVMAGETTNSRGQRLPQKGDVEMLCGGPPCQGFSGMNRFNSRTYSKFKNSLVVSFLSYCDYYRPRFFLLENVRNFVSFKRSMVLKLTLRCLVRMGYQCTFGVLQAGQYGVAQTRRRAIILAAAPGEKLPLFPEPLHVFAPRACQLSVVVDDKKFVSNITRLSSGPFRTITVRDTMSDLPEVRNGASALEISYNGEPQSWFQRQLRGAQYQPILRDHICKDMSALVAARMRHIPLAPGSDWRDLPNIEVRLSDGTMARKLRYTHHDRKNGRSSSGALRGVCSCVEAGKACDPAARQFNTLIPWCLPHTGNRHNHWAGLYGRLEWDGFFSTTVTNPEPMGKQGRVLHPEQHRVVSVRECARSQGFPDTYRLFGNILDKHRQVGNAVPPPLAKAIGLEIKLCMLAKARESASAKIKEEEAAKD

[8] = target: T1, Tyrosine-protein phosphatase non-receptor type 22; test: LYP1 Fluorescent Assay using OMFP substrate for In Vitro dose response studies. [Related pubchem assays (depositor defined):AID1779, AID1784, AID435024]
[9] = target: Beta-adrenergic receptor kinase 1 (Homo sapiens, UniProt P25098); test: aptamer displacement from bead-bound GRK2 – biochemical, cherry pick 1, bead flow cytometry, dose response (AID 504500)
Sequence of Beta-adrenergic receptor kinase 1 (P25098 whole entry): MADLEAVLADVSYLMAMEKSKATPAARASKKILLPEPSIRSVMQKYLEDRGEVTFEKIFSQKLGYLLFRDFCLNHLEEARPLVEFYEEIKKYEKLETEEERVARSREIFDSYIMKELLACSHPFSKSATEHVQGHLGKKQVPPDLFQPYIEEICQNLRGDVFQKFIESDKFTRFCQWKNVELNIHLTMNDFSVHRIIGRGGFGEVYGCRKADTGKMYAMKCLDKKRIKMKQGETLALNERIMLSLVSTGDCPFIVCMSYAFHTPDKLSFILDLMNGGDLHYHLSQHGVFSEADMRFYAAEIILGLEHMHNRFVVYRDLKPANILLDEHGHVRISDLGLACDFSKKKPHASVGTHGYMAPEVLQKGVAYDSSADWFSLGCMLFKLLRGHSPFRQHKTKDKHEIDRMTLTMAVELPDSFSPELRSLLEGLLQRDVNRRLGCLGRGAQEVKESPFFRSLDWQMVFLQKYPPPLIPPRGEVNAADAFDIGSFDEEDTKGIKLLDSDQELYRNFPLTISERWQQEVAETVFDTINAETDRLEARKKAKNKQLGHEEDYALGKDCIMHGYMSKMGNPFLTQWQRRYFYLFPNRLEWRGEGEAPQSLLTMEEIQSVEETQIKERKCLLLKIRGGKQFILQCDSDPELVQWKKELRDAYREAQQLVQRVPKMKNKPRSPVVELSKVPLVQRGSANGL

[10] = target: Serine/threonine-protein phosphatase (Homo sapiens, UniProt Q9BPW0); test: Counterscreen for inhibitors of PP1: fluorescence-based biochemical high throughput dose response assay to identify inhibitors of Protein Phosphatase 5 (PP5). [Related pubchem assays: 2034 (Summary (PP5 inhibitors)), 1987 (PP5 inhibitors in singlate), 2235 (PP1 inhibitors in singlate)]
Sequence of Serine/threonine-protein phosphatase (Q9BPW0 whole entry): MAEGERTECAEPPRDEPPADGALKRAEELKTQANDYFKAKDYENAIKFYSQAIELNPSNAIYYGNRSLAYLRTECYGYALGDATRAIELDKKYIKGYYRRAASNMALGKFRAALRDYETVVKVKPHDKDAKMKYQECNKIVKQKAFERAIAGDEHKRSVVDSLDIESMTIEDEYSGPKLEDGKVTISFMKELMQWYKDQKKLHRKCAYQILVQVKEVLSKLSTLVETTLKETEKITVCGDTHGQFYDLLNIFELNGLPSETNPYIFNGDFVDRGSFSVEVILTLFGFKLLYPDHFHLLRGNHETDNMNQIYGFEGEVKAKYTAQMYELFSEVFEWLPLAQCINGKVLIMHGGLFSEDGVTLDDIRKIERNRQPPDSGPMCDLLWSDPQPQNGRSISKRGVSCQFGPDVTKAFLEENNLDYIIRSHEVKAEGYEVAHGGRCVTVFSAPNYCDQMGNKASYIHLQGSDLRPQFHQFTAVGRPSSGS

[11] = target: T1, Tyrosine-protein phosphatase non-receptor type 22; assay type: functional; remark: listed apart in the source
[12] = target: T4, Tyrosine-protein phosphatase non-receptor type 7 (Homo sapiens, UniProt P35236); test: HTS HePTP Fluorescent Assay using OMFP substrate for In Vitro dose response studies. [Related pubchem assays (depositor defined):AID1059, AID1077, AID1784, AID2068, AID2085, AID435032, AID521]; assay type: functional
T4 sequence (P35236 whole entry): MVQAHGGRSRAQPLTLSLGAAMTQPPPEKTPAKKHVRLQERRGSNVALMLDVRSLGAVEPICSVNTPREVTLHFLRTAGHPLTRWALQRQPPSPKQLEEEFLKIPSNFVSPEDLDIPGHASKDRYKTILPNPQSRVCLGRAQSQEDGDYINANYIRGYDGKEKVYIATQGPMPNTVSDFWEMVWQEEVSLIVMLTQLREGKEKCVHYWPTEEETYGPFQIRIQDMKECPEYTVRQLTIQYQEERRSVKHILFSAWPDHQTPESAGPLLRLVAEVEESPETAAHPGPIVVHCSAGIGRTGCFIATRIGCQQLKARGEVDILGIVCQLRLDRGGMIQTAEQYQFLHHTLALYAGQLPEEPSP

[13] = target: T4, Tyrosine-protein phosphatase non-receptor type 7; assay type: functional
[14] = target: DNA topoisomerase (Yersinia pestis, UniProt A0A2S9PM60); test: Y. pestis Topo-I inhibitors, cleavage product readout, dose response, biochemical, cherry-pick (AID 588525)
Sequence of DNA topoisomerase (A0A2S9PM60 whole entry): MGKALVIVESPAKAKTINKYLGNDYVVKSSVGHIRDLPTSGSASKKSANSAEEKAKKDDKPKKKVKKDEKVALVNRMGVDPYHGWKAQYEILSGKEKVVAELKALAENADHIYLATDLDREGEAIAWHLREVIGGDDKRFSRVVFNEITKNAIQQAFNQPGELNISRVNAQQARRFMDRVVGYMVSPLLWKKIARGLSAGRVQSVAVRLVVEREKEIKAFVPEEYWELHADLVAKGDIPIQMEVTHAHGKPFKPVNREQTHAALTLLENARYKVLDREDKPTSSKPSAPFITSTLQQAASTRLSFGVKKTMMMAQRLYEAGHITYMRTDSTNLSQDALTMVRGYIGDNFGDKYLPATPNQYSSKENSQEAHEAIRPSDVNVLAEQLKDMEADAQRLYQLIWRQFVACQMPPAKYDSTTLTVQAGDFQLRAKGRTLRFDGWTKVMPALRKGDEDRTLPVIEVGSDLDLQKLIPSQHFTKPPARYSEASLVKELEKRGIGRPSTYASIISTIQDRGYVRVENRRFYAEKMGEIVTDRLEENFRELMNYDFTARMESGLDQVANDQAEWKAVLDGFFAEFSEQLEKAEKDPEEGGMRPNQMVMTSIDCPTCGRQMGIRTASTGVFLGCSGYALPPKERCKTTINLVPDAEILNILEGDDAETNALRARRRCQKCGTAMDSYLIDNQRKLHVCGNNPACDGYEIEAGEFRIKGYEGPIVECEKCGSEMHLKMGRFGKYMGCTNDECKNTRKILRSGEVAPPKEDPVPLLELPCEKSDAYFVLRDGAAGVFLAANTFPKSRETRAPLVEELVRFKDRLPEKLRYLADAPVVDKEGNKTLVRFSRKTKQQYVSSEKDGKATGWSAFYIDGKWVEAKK

In the case of CC(C)(CS(=O)(=O)[O-])NC(=O)CC[N+](C)(C)CCO, the IC50 [1] is reported as 5.97 µM (active), the IC50 [2] is reported as 10.9 µM (active) and the EC50 [3] is reported as 1.16 µM (active). For the same compound, the AC50 [4] was 39.8 µM (active), the IC50 [5] was 0.453 µM (active) and the IC50 [6] was 2.46 µM (active). The IC50 [7] was 3.6 µM (active), the IC50 [8] was 4.28 µM (active) and the EC50 [9] was 0.67 µM (active). The IC50 [10] was > 67 µM (not active), the IC50 [11] was 4.08 µM (active) and the IC50 [12] was 28.6 µM (active). For the same compound, the IC50 [13] was 17.9 µM (active).
For CCOc1ccc(N2C(=O)CC(N3CCN(c4ccc(C(=O)c5ccncc5)cc4)CC3)C2=O)cc1 (centres undefined), the AC50 [14] was 10.6 µM (active).

Source: ChEMBL document CHEMBL1201862, “PubChem BioAssay data set” (2004)
